According to patent US12002595B2, “Separation of metal ions by liquid-liquid extraction” (priority 2016, dated 2024):
≈ marks a conversion by molar mass, not a printed value. Where two headings read alike, the source gives them in different places.

Assays:
[1] = Aqueous solubility of the ligand; type: physicochemical; details: water; room temperature
[2] = Extraction of plutonium(IV) by HDEHP as a function of pH with hold-back reagent; details: for % Extraction: 40 mM hold-back reagent, 0.5 M HDEHP
Method: (§1) All liquid-liquid extractions were conducted using a 1:1 organic to aqueous phase ratio for a total volume of 1 mL. Samples were pH adjusted by HNO3 and prepared for a final concentration of 1.0 M sodium lactate, 40 mM of hold-back reagent (160 mM in the case of the HOPO monomer), and 2.0 M Na^+. The concentration of the trivalent f-element was dependent on the availability and radioactivity of the isotopes. The organic phase consisted of 0.5 M HDEHP in kerosene. All samples were incubated in a thermostatic shaker held at 28° C. and rocked at 280 rpm for 90 minutes. To ensure complete phase separation, samples were left overnight at room temperature to equilibrate. Radioactive samples were analyzed by liquid scintillation counting (LSC). The analytical protocol consisted of diluting 10 uL of radioactive sample into 10 mL of Ultima Gold™. Ultima Gold™ is a commercially available analytical reagent commonly used for LSC. The resulting analytical samples were shaken for 10 min prior to counting on a Perkin-Elmer Packard Tri-Carb instrument (model B4430).
(§2) Data was analyzed by the distribution ratio (Dm), separation factor (SFm1/m2) and extraction percentage (% Extraction) as defined by Equations (6), (7) and (8), respectively. Equation (8) uses concentrations of the metal in each phase since the aqueous: organic ratio was 1. Both the organic and aqueous phases were analyzed after liquid-liquid extraction and phase separation. These calculation methods rely on the assumptions that no metal (M) is lost to sorption or precipitation and that no volume variation occurred during the mass transfer between the aqueous and organic phases.
In FIG. 18, aqueous phase: [ligand]=40 mM, buffer sodium lactate/sodium nitrate, organic phase: [HDEHP]=0.5 M, kerosene diluent. T=25° C. O/A=1, one contact. Initial metal concentrations: [Pu-242]=5 μM. Phases analyzed after one contact. Contact time: 30 min. Limit of detection: 0.03% of the initial Pu-242 activity. Data for separation of tetravalent metal ions from trivalent metal ions using 3,4,3-LI(1,2-HOPO) as a hold-back reagent for tetravalent metal ions are shown in TABLE 0.1.

[3] = Extraction by HDEHP as a function of pH with hold-back reagent
Method: as §1, §2
(§3) In FIG. 23, aqueous phase: [ligand]=40 mM, buffer sodium lactate/sodium nitrate. Organic phase: [HDEHP]=0.5 M, kerosene diluent. T=25° C. O/A=1, one contact. Initial metal concentrations: [Ac-225]=0.4 nM, [Am-243]=40.4 nM, or [Gd]=500 μM (spiked with Gd-153 for LSC measurements).
as §3, with “17,” for “23,”, “nitrate, organic” for “nitrate. Organic”, “measurements). Separation factor=ratio M1/M2 in the final organic phase/ratio M1/M2 in the initial aqueous phase. […]” for “measurements).”

[4] = as above; remark: listed apart in the source
Method: as §1, §2, §3

[5] = Extraction by HDEHP at constant pH with 3,4,3-LI(1,2-HOPO) as hold-back reagent; details: 1 mM ligand, 0.1 M HNO3/1.9 M NaNO3; for % Extraction: extraction of ^243Americium(III)
Method: (§4) In FIG. 26, aqueous phase: [ligand]=1 mM, buffer 0.1 M HNO3/1.9 M NaNO3. Organic phase: HDEHP diluted in kerosene. [HDEHP]=0.05, 0.10, 0.25, 0.50, 1.0, or 2.0 M. T=25° C. Volume organic phase/Volume aqueous phase=1. Initial metal concentrations: [Pu-242]=10 μM, [Am-243]=0.25 μM, or [Gd-153]=0.16 nM. Phases analyzed after one contact. Contact time: 30 min.
(§5) The separation factor values given here must been seen as lower limit since the extraction of Pu(IV) is near zero.
as §4, with “28,” for “26,”, “concentrations:” for “concentrations: [Pu-242]=10 μM,”, “min. Corresponding separation factors (SF) are given on the right Y-axis. SF Gd/Am=Ratio [Gd]/[Am] in the final organic phase/Ratio [Gd]/[Am] in the initial aqueous solution.” for “min.”

[6] = as above; details: 1 mM ligand; for % Extraction: 0.1 M HNO3/1.9 M NaNO3, extraction of ^242Plutonium(IV); for SF Am^3+/Pu^4+: to be seen as lower limit
Method: as §4, §5

[7] = Eu(III), cited from earlier work
[8] = cited from earlier work
[9] = highest value reached, HDEHP/343HOPO-HNO3 system

For `O=C(NCCCN(CCCCN(CCCNC(=O)c1cccc(=O)n1O)C(=O)c1cccc(=O)n1O)C(=O)c1cccc(=O)n1O)c1cccc(=O)n1O` [3,4,3-LI(1,2-HOPO)], the solubility [1] was 1000 mM (≈ 751 mg/mL), the “% Extraction” value ([2]; pH 0.25) was 0.00% and the “% Extraction” value ([2]; pH 0.85) was 0.00%. For the same molecule, the “% Extraction” value ([2]; pH 1.78) was 0.00%, the “% Extraction” value ([2]; pH 2.71) was 0.00% and the “% Extraction” value ([2]; pH 2.87) was 0.00%. For the same molecule, the “% Extraction” value ([2]; pH 3.62) was 0.00%, the “% Extraction” value ([2]; pH 4.52) was 0.00% and the “extraction yield of Pu^4+ (upper limit, instrumental detection limit)” value ([2]; value plotted on FIG. 18, all tested pH) was ≤ 0.03%. The SFAc/Am [3, 9] was 130,000, the SFAc/Gd [3, 9] was 1,300,000 and the SFAc/Am ([3]; pH 0.9 (±0.1)) was 3.99 * 10^2. For the same molecule, the SFAc/Am ([3]; pH 1.5 (±0.1)) was 9.06 * 10^3, the SFAc/Gd ([3]; pH 1.5 (±0.1)) was 6.55 * 10^2 and the SFAc/Am ([3]; pH 3.5 (±0.1)) was 8.13 * 10^4. The SFAc/Gd ([3]; pH 3.5 (±0.1)) was 4.61 * 10^5, the SFAc/Am ([3]; pH 4.0 (±0.1)) was 1.28 * 10^5 and the SFAc/Gd ([3]; pH 4.0 (±0.1)) was 1.33 * 10^6. For the same molecule, the extraction of actinium ([3]; pH higher than 1.5, 40 mM ligand, 0.5 M HDEHP) was “quantitative extraction”, the SFAc/Pu ([3]; single step, initial Pu/Ac ratio ~10,000 mol/mol, 40 mM chelator, 0.5 M HDEHP) was “at least 1,000,000” and the “separation factor between Ac and relevant metal impurities” value ([3]; summary statement) was 10^6. The “extraction of Am^3+” value ([4]; pH higher than 1, 40 mM ligand, 0.5 M HDEHP) was “No extraction”, the “SF Gd^3+/Am^3+” value ([5]; HDEHP 0.05 M) was 24.1 and the “% Extraction” value ([5]; HDEHP 0.05 M) was 0.21%. For the same molecule, the “SF Gd^3+/Am^3+” value ([5]; HDEHP 0.10 M) was 23.3, the “% Extraction” value ([5]; HDEHP 0.10 M) was 1.32% and the “SF Gd^3+/Am^3+” value ([5]; HDEHP 0.25 M) was 25.3. For the same molecule, the “% Extraction” value ([5]; HDEHP 0.25 M) was 10.08%, the “SF Gd^3+/Am^3+” value ([5]; HDEHP 0.50 M) was 27.0 and the “% Extraction” value ([5]; HDEHP 0.50 M) was 30.27%. For the same molecule, the “SF Gd^3+/Am^3+” value ([5]; HDEHP 1.00 M) was 45.6, the “% Extraction” value ([5]; HDEHP 1.00 M) was 49.98% and the “SF Gd^3+/Am^3+” value ([5]; HDEHP 2.00 M) was 99.8. The “% Extraction” value ([5]; HDEHP 2.00 M) was 57.29%, the “% Extraction” value ([6]; HDEHP 0.05 M) was 0.02% and the “SF Am^3+/Pu^4+” value ([6]; HDEHP 0.05 M) was 14. The “% Extraction” value ([6]; HDEHP 0.10 M) was 0.02%, the “SF Am^3+/Pu^4+” value ([6]; HDEHP 0.10 M) was 84 and the “% Extraction” value ([6]; HDEHP 0.25 M) was 0.05%. The “SF Am^3+/Pu^4+” value ([6]; HDEHP 0.25 M) was 236, the “% Extraction” value ([6]; HDEHP 0.50 M) was 0.03% and the “SF Am^3+/Pu^4+” value ([6]; HDEHP 0.50 M) was 1450. The “% Extraction” value ([6]; HDEHP 1.00 M) was 0.16%, the “SF Am^3+/Pu^4+” value ([6]; HDEHP 1.00 M) was 624 and the “% Extraction” value ([6]; HDEHP 2.00 M) was 0.21%. For the same molecule, the “SF Am^3+/Pu^4+” value ([6]; HDEHP 2.00 M) was 649, the “log β111” value ([7]; I=0.1 M at 25° C.) was 24.8 and the “Last pKa” value [8] was 6.64. The “overall acidity (ΣpKa)” value ([8]; literature value compared with ΣpKa5-8 of 3,4,3-LI(CAM)) was 21.2.
In the case of `O=C(O)CN(CCN(CC(=O)O)CC(=O)O)CCN(CC(=O)O)CC(=O)O` [DTPA, Diethylenetriaminepentaacetic acid, reference compound], the “% Extraction” value ([2]; pH 0.40) is reported as 95.24%, the “% Extraction” value ([2]; pH 1.27) is reported as 4.08% and the “% Extraction” value ([2]; pH 1.84) is reported as 1.17%. For the same molecule, the “% Extraction” value ([2]; pH 2.55) was 0.63%, the “% Extraction” value ([2]; pH 2.75) was 0.73% and the “% Extraction” value ([2]; pH 3.45) was 0.65%. For the same molecule, the “% Extraction” value ([2]; pH 4.29) was 0.29%, the SFAm/Ac ([3]; HDEHP/DTPA-HNO3 system) was “below 10” and the SFGd/Ac ([3]; HDEHP/DTPA-HNO3 system) was < 5,300. The “maximum metal extraction of Ac(III)” value ([3]; around pH 1.5) was 49%, the “extraction of Ac(III)” value ([3]; at pH 4) was “less than 10%” and the SFAc/Gd ([3]; pH 0.8 (±0.1)) was <10^−3. For the same molecule, the SFAc/Am ([3]; pH 0.9 (±0.1)) was 5.83 * 10^−2, the SFAc/Am ([3]; pH 1.5 (±0.1)) was 2.70 * 10^−1 and the SFAc/Gd ([3]; pH 1.5 (±0.1)) was <10^−3. For the same molecule, the SFAc/Am ([3]; pH 3.5 (±0.1)) was 6.86 * 10^−2, the SFAc/Gd ([3]; pH 3.5 (±0.1)) was <10^−3 and the SFAc/Am ([3]; pH 4.0 (±0.1)) was 1.11 * 10^−1. For the same molecule, the SFAc/Gd ([3]; pH 4.0 (±0.1)) was <10^−3, the “maximum metal extraction of Am(III)” value ([4]; around pH 1.5) was 78% and the “extraction of Am(III)” value ([4]; at pH 4) was “less than 10%”. The “Extraction of Gd(III)” value ([4]; until after pH 4) was “above 90%”, the “log β111” value ([7]; I=2.0 M at 25° C.) was 22.56 and the “Last pKa” value [8] was 10.4.
